Laboratory results taken from US10800765B2, “Indole derivative used as CRTH2 inhibitor” (CHIA TAI TIANQING PHARMACEUTICAL GROUP CO., LTD., priority 2016, dated 2020).

Target: CRTH2 receptor (Homo sapiens (Human), UniProt Q9Y5Y4)
Test: PathHunter CHO-K1 CRTH2 β-arrestin antagonist assay (PGD2 agonist)
Format: cell-based
Conditions: PathHunter CHO-K1 CRTH2 β-arrestin cells; 30 min compound pre-incubation, then EC80 PGD2 for 90 min; chemiluminescence
Procedure: PathHunter® CHO-K1 CRTH2 β-arrestin cells (DiscoverX, catalogue number 93-0291C2) grew under standard conditions, and were inoculated into a white-wall 384-well microplate at a density of 5,000 cells/well. 20 μL of Cell Plating Reagent 1 was used in each well. Before the test, the cells were incubated overnight at 37° C./5% CO2. A test compound was serially diluted in DMSO with a dilution factor of 3-fold to give 8 concentrations of the test compound. Shortly before the test, the serially diluted test compound was further diluted with the test buffer to 5 times of the test concentration. 5 μL of the further diluted test compound was added to the cells, and the cells were incubated for 30 min at 37° C. The concentration of the solvent was 1%. 5 μL of 6×EC80 agonist (PGD2) buffer was added to the cells, and the cells were incubated for 90 min at 37° C. Measured signals were generated by one-time addition of 15 μL (50% v/v) of PathHunter detection mixture reagent and subsequent one-hour incubation. The microplate was read through the chemiluminescent signals of PerkinElmer Envision™ reader. Biological activity of the test compound was analyzed by CBIS data analysis suite (ChemInnovation, CA), and was denoted as IC50 value.

CRTH2 receptor, sequence (Q9Y5Y4 whole entry): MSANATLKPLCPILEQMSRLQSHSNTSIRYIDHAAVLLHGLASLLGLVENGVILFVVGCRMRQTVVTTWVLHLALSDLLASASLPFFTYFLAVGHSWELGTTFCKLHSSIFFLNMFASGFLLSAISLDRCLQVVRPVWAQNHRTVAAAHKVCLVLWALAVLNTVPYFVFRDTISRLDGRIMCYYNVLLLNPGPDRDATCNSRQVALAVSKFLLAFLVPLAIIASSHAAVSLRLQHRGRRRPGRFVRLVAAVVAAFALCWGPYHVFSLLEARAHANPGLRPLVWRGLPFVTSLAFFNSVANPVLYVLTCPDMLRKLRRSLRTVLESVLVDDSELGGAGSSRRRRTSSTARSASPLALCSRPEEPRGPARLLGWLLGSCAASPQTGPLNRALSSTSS

`Cc1c(C2CS(=O)(=O)c3ccccc32)c2cc(F)ccc2n1CC(=O)O` (stereo not drawn) [Example 2] and `Cc1c(C2=CCCS(=O)(=O)c3ccccc32)c2cc(F)ccc2n1CC(=O)O` [Example 9] fall in the same range of IC50: 100 to 1000 nM for the first, 100 to 1000 nM for the second.

`Cc1c(C2=CS(=O)(=O)c3ccccc32)c2ccc(F)cc2n1CC(=O)O` [Example 3] and `Cc1c(C2=CS(=O)(=O)c3ccccc32)c2cc(Cl)ccc2n1CC(=O)O` [Example 5] fall in the same range of IC50: 100 to 1000 nM for the first, 100 to 1000 nM for the second.

`Cc1c(C2=CS(=O)(=O)c3ccncc32)c2cc(F)ccc2n1CC(=O)O` [Example 10] and `Cc1c(C2=CS(=O)(=O)c3ccc(Cl)cc32)c2cc(F)ccc2n1CC(=O)O` [Example 33] fall in the same range of IC50: 100 to 1000 nM for the first, 100 to 1000 nM for the second.

`Cc1c(C2=CS(=O)(=O)c3ncccc32)c2cc(F)ccc2n1CC(=O)O` [Example 11] and `Cc1c(C2=CS(=O)(=O)c3ccc(C(F)(F)F)cc32)c2cc(F)ccc2n1CC(=O)O` [Example 12] fall in the same range of IC50: 100 to 1000 nM for the first, 100 to 1000 nM for the second.

`Cc1ccc2c(c1)c(C1=CS(=O)(=O)c3ccc(C(F)(F)F)cc31)c(C)n2CC(=O)O` [Example 15] and `Cc1ccc2c(c1)c(C1=CS(=O)(=O)c3cc(C(F)(F)F)ccc31)c(C)n2CC(=O)O` [Example 19] fall in the same range of IC50: 100 to 1000 nM for the first, 100 to 1000 nM for the second.

`Cc1c(C2=CS(=O)(=O)c3ccc(C(F)(F)F)cc32)c2ccc(F)cc2n1CC(=O)O` [Example 16] and `Cc1c(C2=CS(=O)(=O)c3cc(C(F)(F)F)ccc32)c2ccc(F)cc2n1CC(=O)O` [Example 20] fall in the same range of IC50: 100 to 1000 nM for the first, 100 to 1000 nM for the second.

`Cc1c(C2=CS(=O)(=O)c3cc(C(F)(F)F)ccc32)c2cc(Cl)ccc2n1CC(=O)O` [Example 17] and `Cc1c(C2=CS(=O)(=O)c3cc(C(F)(F)F)ccc32)c2ccc(Cl)cc2n1CC(=O)O` [Example 18] fall in the same range of IC50: 100 to 1000 nM for the first, 100 to 1000 nM for the second.

Compared with `Cc1c(C2=CS(=O)(=O)c3cc(-c4ccncc4)ccc32)c2cc(F)ccc2n1CC(=O)O` [Example 21], `Cc1c(C2=CS(=O)(=O)c3cc(S(C)(=O)=O)ccc32)c2cc(F)ccc2n1CC(=O)O` [Example 31] is lower in IC50: 100 to 1000 nM for the first, under 100 nM for the second. The second is the more potent here.

`Cc1c(C2=CS(=O)(=O)c3ccc(Cl)cc32)c2cc(Cl)ccc2n1CC(=O)O` [Example 34] and `Cc1c(C2=CS(=O)(=O)c3ccc(Cl)cc32)c2ccc(C(F)(F)F)cc2n1CC(=O)O` [Example 38] fall in the same range of IC50: 100 to 1000 nM for the first, 100 to 1000 nM for the second.

First: Cc1c(Cc2ccc3c(c2)CCS3(=O)=O)c2cc(F)ccc2n1CC(=O)O [Example 43]
Second: Cc1c(Cc2ccc3c(c2)S(=O)(=O)CC3)c2cc(F)ccc2n1CC(=O)O [Example 74]
The IC50 of the first is lower: under 100 nM for the first, 100 to 1000 nM for the second. The first is the more potent here.

`Cc1c(Cc2ccc3c(c2)C=CS3(=O)=O)c2cc(F)ccc2n1CC(=O)O` [Example 44] and `Cc1c(Cc2ccc3c(c2)N(C)S(=O)(=O)C=C3)c2cc(F)ccc2n1CC(=O)O` [Example 48] fall in the same range of IC50: 100 to 1000 nM for the first, 100 to 1000 nM for the second.

`Cc1c(C(C)C2=CS(=O)(=O)c3ccccc32)c2cc(F)ccc2n1CC(=O)O` (stereo not drawn) [Example 45] and `Cc1c(Cc2cccc3c2CCS3(=O)=O)c2cc(F)ccc2n1CC(=O)O` [Example 49] fall in the same range of IC50: 100 to 1000 nM for the first, 100 to 1000 nM for the second.

First: Cc1c(Cc2ccc3c(c2)C(F)C(F)(F)S3(=O)=O)c2cc(F)ccc2n1CC(=O)O (stereo not drawn) [Example 46]
Second: Cc1c(Cc2ccc3c(c2)N=CNS3(=O)=O)c2cc(F)ccc2n1CC(=O)O [Example 66]
The IC50 of the first is higher: 100 to 1000 nM for the first, under 100 nM for the second.

`Cc1c(Cc2ccc3c(c2)CCS3(=O)=O)c2ccccc2n1CC(=O)O` [Example 50] and `Cc1c(Cc2ccc3c(c2)CCS3(=O)=O)c2cc(Cl)ccc2n1CC(=O)O` [Example 51] fall in the same range of IC50: 100 to 1000 nM for the first, 100 to 1000 nM for the second.

`Cc1ccc2c(c1)c(Cc1ccc3c(c1)CCS3(=O)=O)c(C)n2CC(=O)O` [Example 52] and `Cc1c(Cc2ccc3c(c2)CCS3(=O)=O)c2cc(Br)ccc2n1CC(=O)O` [Example 55] fall in the same range of IC50: 100 to 1000 nM for the first, 100 to 1000 nM for the second.

First: Cc1c(Cc2ccc3c(c2)CCS3(=O)=O)c2ccc(Cl)cc2n1CC(=O)O [Example 54]
Second: Cc1c(Cc2ccc3c(c2)CCS3(=O)=O)c2cc([N+](=O)[O-])ccc2n1CC(=O)O [Example 57]
The IC50 of the first is higher: over 1000 nM for the first, 100 to 1000 nM for the second.

First: CC(=O)Nc1ccc2c(c1)c(Cc1ccc3c(c1)CCS3(=O)=O)c(C)n2CC(=O)O [Example 59]
Second: Cc1c(Cc2cccc3c2S(=O)(=O)CC3)c2cc(F)ccc2n1CC(=O)O [Example 75]
The IC50 of the first is higher: over 1000 nM for the first, 100 to 1000 nM for the second. The second is the more potent here.

`O=C(O)Cn1cc(Cc2ccc3c(c2)CCS3(=O)=O)c2cc(F)ccc21` [Example 60] and `Cc1c(Cc2cc3c(cc2C(F)(F)F)S(=O)(=O)CC3)c2cc(F)ccc2n1CC(=O)O` [Example 61] fall in the same range of IC50: 100 to 1000 nM for the first, 100 to 1000 nM for the second.

`Cc1c(Cc2cc3c(cc2C(F)(F)F)S(=O)(=O)CCC3(F)F)c2cc(F)ccc2n1CC(=O)O` [Example 63] and `Cc1c(Cc2cc3c(cc2C(F)(F)F)S(=O)(=O)N(C)CC3(F)F)c2cc(F)ccc2n1CC(=O)O` [Example 64] fall in the same range of IC50: 100 to 1000 nM for the first, 100 to 1000 nM for the second.

First: Cc1c(Cc2ccc3c(n2)C(F)(F)CCS3(=O)=O)c2cc(F)ccc2n1CC(=O)O [Example 65]
Second: Cc1c(Cc2cc3c(cc2F)S(=O)(=O)N(C)CC3(F)F)c2cc(F)ccc2n1CC(=O)O [Example 78]
The IC50 of the first is lower: under 100 nM for the first, 100 to 1000 nM for the second.

First: Cc1c(Cc2ccc3c(c2)N(C)CN(C2CC2)S3(=O)=O)c2cc(F)ccc2n1CC(=O)O [Example 70]
Second: Cc1c(Cc2ccc3c(c2)C(F)(F)CCS3(=O)=O)c2ncccc2n1CC(=O)O [Example 80]
The IC50 of the first is lower: under 100 nM for the first, 100 to 1000 nM for the second.
